Laboratory results: patent publication US9902766B2, “Antibodies to endoplasmin and their use” (University of Pittsburgh—Of The Commonwealth System of …, priority 2010, dated 2018)
Where two headings read alike, the source gives them in different places.

System: MIAPaCa-2 cancer initiating cells (ALDHbright cells)
Assay: cancer initiating cell in vitro proliferation, ALDEFLUOR flow cytometry
Format: cell-based
Settings: Homo sapiens, read-out: growth inhibition of ALDHbright cells
Procedure: FIG. 19. […] Human pancreatic adenocarcinoma MIAPaCa-2 cells were incubated with mAb W9 (25 μg/ml), for 48 hrs at 37° C. Cells were then harvested and stained with ALDEFLUOR® (TEST). Cells stained with ALDEFLUOR®+DAEB were used as a reference (CONTROL). Human Ig (HIg) were used as a control.
FIG. 26. […] Human pancreatic adenocarcinoma MIAPaCa-2 cells were incubated with mAb W9 (25 μg/ml), cyclopamine (20 μM), and 5-FU (10 μM) for 48 hrs at 37° C. Cells were then stained with ALDEFLUOR with or without the DEAB inhibitor to identify ALDH^bright cells. The anti-HLA class I mAb TP25.99 was used as a control.
FIGS. 28A and 28B. […] Human pancreatic adenocarcinoma MIAPaCa-2 cells (4×10^5/ml) were irradiated at the dose of 20Gy (panel A.) and incubated with mAb W9 (10 μg/ml) and cyclopamine (20 μM) for 72 hrs at 37° C. Cells were then stained with ALDEFLUOR with or without the DEAB inhibitor to identify ALDH^bright cells. Non-irradiated cell were used as a control (panel B.).

| SMILES | inhibition at 10 µM (MIA PaCa-2, MIAPaCa-2, mAb W9 25 μg/ml, cyclopamine 20 μM, 5-FU 10 μM, 48 hrs) [%] | inhibition at 20 µM (MIA PaCa-2, 48 h) [%] | inhibition at 20 µM (MIA PaCa-2, 72 h) [%] |
| --- | --- | --- | --- |
| O=c1[nH]cc(F)c(=O)[nH]1 [5-FU, 5-fluorouracil, reference compound] | 20 | – | – |
| CC1=C2C[C@H]3[C@@H](CC=C4C[C@@H](O)CC[C@@]43C)[C@@H]2CC[C@]12O[C@@H]1C[C@H](C)CN[C@H]1[C@H]2C [cyclopamine, reference compound] | – | 50 | ~50 |
